Data on two compounds can be found in patent publication US5500429A, “Calcium uptake inhibitors” (Merrell Pharmaceuticals Inc., priority 1993, dated 1996).

Molecules are shown by their SMILES. Where two headings read alike, the source gives them in different places.

The test system of one experiment is Rat PMNL. The experiment in a line: Superoxide Anion (SOA) Production by rat PMNL. Particulars: for inhibition of superoxide anion production: PMA and OZ induced; for inhibition at 1 µM / inhibition at 3 µM / inhibition at 10 µM / inhibition at 30 µM / inhibition at 100 µM / inhibition at 300 µM: Rattus norvegicus, PMNL. Format: cell-based. The method, then:
(§1) Rat PMNL were obtained from exudates resulting from peritoneal injection of 6 mL of 8% sodium caseinate. Eighteen hours after injection rats were killed by carbon dioxide inhalation and the peritoneal cavity lavaged with Hank's balanced salt solution (HBSS). After concentration of the PMNL by centrifugation, contaminating erythrocytes were removed by hypotonic lysis. The PMNL were then washed twice by centrifugation (400×g for 10 minutes) and resuspended in HBSS. Cell viability was greater than 90% by Trypan Blue exclusion and greater than 90% of the cells were PMNL by Wright-Giemsa stain.
Aliquots (50 μl) of a rat PMNL suspension (2×10^7 cells/mL in HBSS) were incubated with 50 μl of HBSS containing vehicle (0.3% DMSO) or compound for 30 minutes at 37° C. as above. One hundred microliters of buffer containing 5.98 mg/mL of cytochrome C (Sigma Type III) and 0.1 mg/mL catalase, plus the compounds where appropriate, were then added to each sample. A blank for spectrophotometric measurement, containing unstimulated cells in the presence of cytochrome C, catalase and SOD, was also prepared. To activate the PMNL, 75 μl of PMA or OZ were added to achieve the final concentration of cell activator (plus vehicle or inhibitor as described above for MPO release) and the cells further incubated at 37° C. for 60 minutes. The activation was terminated by centrifugation at 600×g for 5 minutes at 4° C. Aliquots (200 μl) of supernatant were then transferred to a second, flat-well microtiter plate and measured spectrophotometrically at 550 nm. […]

For experiment [1], the system named is Rat PMNL (intracellular calcium). The experiment in a line: Measurement of Intracellular Calcium (Fura-2) in fMLP-stimulated rat PMNL. It is filed as cell-based. The following applies: for suppression of the second wave of intracellular calcium changes: fMLP-stimulated PMNL, preincubation with compound, FIG. 1. How it is done: as §1
Intracellular calcium levels were obtained using Fura-2 as fluorescent indicator (Grynkiewicz et al., 1985). Fura-2 was loaded into PMNL as the acetoxymethyl ester (Fura-2/AM) using the method of Korchak et al., (1988). Specifically, 1×10^8 PMNL/mL were incubated in HBSS with 10 μM Fura-2/AM for 10 minutes at 37° C. The cells suspension was then diluted ten fold with HBSS and further incubated for another 20 minutes. The cells were then centrifuged (400×g for 8 minutes at 25° C.) and the PMNL (1×10^7 cells/mL) resuspended in HBSS containing 1% bovine serum albumin. Cells were stored at room temperature and used within 3 hours.
Intracellular calcium level determinations were made using a dual wavelength spectrofluorometer (Photon Technology International, New Brunswick, N.J.). Two mL of PMNL suspension (1×10^7 cells/mL) were stirred magnetically at 37° C. Cells were preincubated with the compounds for 15 minutes at 37° C. prior to activation. Where compounds were dissolved in DMSO and added directly, the DMSO never exceeded 0.3% in the final cell suspension. Total change in volume with addition of compounds or vehicle and stimuli never exceeded 3%. Intracellular calcium concentrations were calibrated by setting a maximum calcium level in the cells with the addition of 7 uM ionomycin to PMNL in HBSS containing 1% BSA. This was followed by treatment with 20 mM EGTA for 1 hour to obtain a minimum calcium level. […]
(In general: Calcium flux is commonly read through the fluorescence of an indicator in the cells.)

[2] abbreviates: PMA, read-out: PMA/SOA inhibition.
[3] abbreviates: opsonized zymosan, read-out: OZ/SOA inhibition.

`CN(C)c1ccc(C(=O)C=Cc2ccncc2)cc1` [MDL 101,240, 1-(4-dimethylaminophenyl)-3-(4-pyridinyl)-2-propene-1-one]: the “inhibition of superoxide anion production” value in the experiment with Rat PMNL is given as “inhibited in a dose dependent fashion”. In addition, in the experiment on Rat PMNL (setting [2]), the inhibition at 1 µM is -7.2%, the inhibition at 3 µM was found to be 4.7%, the inhibition at 10 µM worked out at 5.9% and the inhibition at 30 µM worked out at 34.5%. Besides, the inhibition at 100 µM in the experiment with Rat PMNL (setting [2]) is 81.5%. For the same compound, in the experiment with Rat PMNL (setting [3]), the inhibition at 1 µM is -7.8%, the inhibition at 3 µM turned out to be 2.5%, the inhibition at 10 µM was found to be 21.3% and the inhibition at 30 µM was 66.3%. In addition, the inhibition at 100 µM in the experiment with Rat PMNL (setting [3]) is 85%. For the same compound, in experiment [1] (MDL 101,240 vs MDL 29,355, fMLP stimulus), the “relative inhibition of the second phase (calcium uptake)” value is listed as “stronger inhibition for MDL 101,240 than for MDL 29,355”. For the same compound, the “suppression of the second wave of intracellular calcium changes” value in experiment [1] is listed as “selective concentration-dependent suppression of the second wave of intracellular calcium changes”.
On to `O=C(C=Cc1ccncc1)c1ccccc1` [MDL 29,355, 1-phenyl-3-(4-pyridinyl)-2-propene-1-one], for which the “inhibition of superoxide anion production” value with Rat PMNL is “inhibited in a dose dependent fashion”. Besides, in the experiment with Rat PMNL (setting [2]), the inhibition at 1 µM is -29.5%, the inhibition at 3 µM is -30.2%, the inhibition at 10 µM is -20.7% and the inhibition at 30 µM is -12.3%. In the experiment with Rat PMNL (setting [2]), the inhibition at 100 µM is 21.1% and the inhibition at 300 µM is 104%. For the same compound, in the experiment with Rat PMNL (setting [3]), the inhibition at 1 µM was -10.7%, the inhibition at 3 µM was -12.6%, the inhibition at 10 µM was 2.5% and the inhibition at 30 µM came out at 27.5%. Also, in the experiment on Rat PMNL (setting [3]), the inhibition at 100 µM is 67.6% and the inhibition at 300 µM is 102%. The “suppression of the second wave of intracellular calcium changes” value in experiment [1] is on record as “selective concentration-dependent suppression of the second wave of intracellular calcium changes”.
